Columns and labels:
[1] = biological target: HLA DRB1*04:01 (Homo sapiens, UniProt P01903+P01911, A100K/A169T/F76Y/I96L/K127E/L162R/M171V/N62H/P40V/Q125Y/R42H/S133A/S149N/S66Y/V115G/V209L/W38E); assay: biochemical; type: binding; conditions: binder threshold 1,000 nM, read-out: In vitro (IC50 nM) DRB1*04:01
[2] = biological target: HLA DRB1*09:01 (Homo sapiens, UniProt P01903+P01911, A100R/A103E/D57H/D86V/F55Y/F60I/F76Y/I96F/K127E/L162R/M171V/P40D/Q125H/Q99R/R33Q/R42F/S133A/S66N/T210M/V115G/W38K/Y107V/Y59G/Y89S); assay: biochemical; type: binding; conditions: binder threshold 1,000 nM, read-out: In vitro (IC50 nM) DRB1*09:01
[3] = biological target: HLA DRB1*07:01 (Homo sapiens, UniProt P01903+P01911, A100R/A102G/A103Q/D57E/D86V/E43K/F76Y/K127E/L162R/M171V/P40G/Q125H/Q99D/R33Q/R42Y/R54Q/S133A/S66F/T210M/V115G/Y107V/Y59L/Y89S); assay: biochemical; type: binding; conditions: binder threshold 1,000 nM, read-out: In vitro (IC50 nM) DRB1*07:01
[4] = biological target: HLA DRB1*12:01 (Homo sapiens, UniProt P01903+P01911, A100R/A169T/D57E/D86V/F55L/H45Y/K41T/L162R/M171V/P40S/Q125H/Q178H/Q39Y/Q99D/R42G/S66L/T262R/V114A/V67L/W38E/Y59H/Y61H/Y89S); assay: biochemical; type: binding; conditions: binder threshold 1,000 nM, read-out: In vitro (IC50 nM) DRB1*12:01
[5] = biological target: HLA DRB1*01:01 (Homo sapiens, UniProt P01903+P01911, A100R/D57E/F55L/F60I/F76Y/I96L/L162R/M171V/P40L/Q125E/R42F/V115G/Y59C); assay: biochemical; type: binding; conditions: binder threshold 1,000 nM, read-out: In vitro (IC50 nM) DRB1*01:01
[6] = biological target: HLA DRB1*08:02 (Homo sapiens, UniProt P01903+P01911, A100R/A103L/A169T/F76Y/H45Y/I96F/K41T/L162R/M171V/P40S/Q125H/Q178H/Q39Y/Q99D/R218S/R42G/S66Y/V115G/W38E); assay: biochemical; type: binding; conditions: binder threshold 1,000 nM, read-out: In vitro (IC50 nM) DRB1*08:02
[7] = biological target: HLA DRB1*11:01 (Homo sapiens, UniProt P01903+P01911, A100R/A169T/A87E/I96F/K41T/L162R/M171V/P40S/Q125H/Q178H/Q39Y/Q99D/R42S/S66Y/T262R/V115G/W38E); assay: biochemical; type: binding; conditions: binder threshold 1,000 nM, read-out: In vitro (IC50 nM) DRB1*11:01
Chain of HLA DRB1*11:01 (P01903 26-254, other chains not shown): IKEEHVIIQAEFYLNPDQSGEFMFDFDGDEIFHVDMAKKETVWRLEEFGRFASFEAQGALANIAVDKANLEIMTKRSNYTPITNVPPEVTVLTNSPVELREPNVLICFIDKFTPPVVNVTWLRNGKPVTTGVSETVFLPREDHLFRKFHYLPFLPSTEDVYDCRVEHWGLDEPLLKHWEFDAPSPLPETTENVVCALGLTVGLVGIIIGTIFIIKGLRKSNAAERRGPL

[8] = biological target: HLA DRB1*15:01 (Homo sapiens, UniProt P01903+P01911); assay: biochemical; type: binding; conditions: binder threshold 1,000 nM, read-out: In vitro (IC50 nM) DRB1*15:01
[9] = biological target: HLA DRB1*04:05 (Homo sapiens, UniProt P01903+P01911, A100R/A169T/D86S/F76Y/I96L/K127E/L162R/M171V/N62H/P40V/Q125Y/R42H/S133A/S149N/S66Y/V115G/V209L/W38E); assay: biochemical; type: binding; conditions: binder threshold 1,000 nM, read-out: In vitro (IC50 nM) DRB1*04:05
[10] = system: pre-cultured PBMCs (NSP12-specific T cells); assay: IFN-γ ELISpot with single 15-mer peptides after 11–13 days in vitro peptide-pool T-cell expansion; type: cell-based, human; conditions: for peptide-specific response, donor HH-N12-18, post COVID-19 / peptide-specific response, donor HH-N12-18, pre COVID-19 / peptide-specific response, donor HH-N12-34, post COVID-19 / peptide-specific response, donor HH-N12-34, pre COVID-19 / peptide-specific response, donor HH-N12-35, post COVID-19 / peptide-specific response, donor HH-N12-35, pre COVID-19 / peptide-specific response, donor HH-N12-36, post COVID-19 / peptide-specific response, donor HH-N12-36, pre COVID-19 / peptide-specific response, donor HH-N12-37, post COVID-19 / peptide-specific response, donor HH-N12-37, pre COVID-19: single NSP12 15-mer peptides
[11] = donor HH-N12-18, sample post COVID-19
[12] = donor HH-N12-18, sample pre COVID-19
[13] = donor HH-N12-34, sample post COVID-19
[14] = donor HH-N12-34, sample pre COVID-19
[15] = donor HH-N12-35, sample post COVID-19
[16] = donor HH-N12-35, sample pre COVID-19
[17] = donor HH-N12-36, sample post COVID-19
[18] = donor HH-N12-36, sample pre COVID-19
[19] = donor HH-N12-37, sample post COVID-19
[20] = donor HH-N12-37, sample pre COVID-19

Compound | peptide-specific response, donor HH-N12-18, post COVID-19 [10, 11] | peptide-specific response, donor HH-N12-18, pre COVID-19 [10, 12] | peptide-specific response, donor HH-N12-34, post COVID-19 [10, 13] | peptide-specific response, donor HH-N12-34, pre COVID-19 [10, 14] | peptide-specific response, donor HH-N12-35, post COVID-19 [10, 15] | peptide-specific response, donor HH-N12-35, pre COVID-19 [10, 16] | peptide-specific response, donor HH-N12-36, post COVID-19 [10, 17] | peptide-specific response, donor HH-N12-36, pre COVID-19 [10, 18] | peptide-specific response, donor HH-N12-37, post COVID-19 [10, 19] | peptide-specific response, donor HH-N12-37, pre COVID-19 [10, 20] | further results
CSCC[C@H](NC(=O)[C@H](CO)NC(=O)[C@H](Cc1ccccc1)NC(=O)[C@H](Cc1c[nH]cn1)NC(=O)[C@H](CCCCN)NC(=O)[C@H](CCCNC(=N)N)NC(=O)[C@H](CC(C)C)NC(=O)[C@H](Cc1ccc(O)cc1)NC(=O)[C@H](C)NC(=O)[C@H](Cc1ccc(O)cc1)NC(=O)[C@H](Cc1ccccc1)NC(=O)[C@H](CCC(=O)O)NC(=O)[C@H](CC(N)=O)NC(=O)[C@@H](NC(=O)[C@@H](N)Cc1ccccc1)C(C)C)C(=O)O [NSP12_149] | – | – | – | – | – | – | – | – | – | – | IC50 [1]: 8370 nM; IC50 [2]: 2510 nM; IC50 [3]: 3830 nM; IC50 [4]: 2540 nM; IC50 [5]: 36100 nM; IC50 [6]: 828 nM; IC50 [7]: 70 nM; IC50 [8]: 1250 nM
CC[C@H](C)[C@H](NC(=O)[C@H](CC(=O)O)NC(=O)[C@H](CS)NC(=O)[C@H](CCSC)NC(=O)[C@@H](NC(=O)[C@@H]1CCCN1C(=O)[C@H](CC(C)C)NC(=O)[C@H](CC(N)=O)NC(=O)[C@H](Cc1ccc(O)cc1)NC(=O)[C@H](CCCNC(=N)N)NC(=O)[C@@H](N)Cc1ccc(O)cc1)[C@@H](C)O)C(=O)N[C@@H](CCCNC(=N)N)C(=O)N[C@@H](CCC(N)=O)C(=O)N[C@@H](CC(C)C)C(=O)N[C@@H](CC(C)C)C(=O)O [Peptide 92] | – | – | – | – | – | – | – | – | – | – | IC50 [1]: 5310 nM; IC50 [2]: 1490 nM; IC50 [3]: 1840 nM; IC50 [4]: 5120 nM; IC50 [5]: 12000 nM; IC50 [7]: 8940 nM; IC50 [8]: 2910 nM; IC50 [9]: 4640 nM
VAKHDFFKFRIDGDM [compound 20] | 0 | 0 | 0 | 0 | 0 | 0 | 0 | 0 | 0 | 0 | –
VASIKNFKSVLYYQN [compound 156] | – | – | – | – | – | – | – | – | – | – | peptide-specific T-cell response, donor HH-N12-18, post COVID-19 ([10]; donor HH-N12-18, sample post COVID-19, single NSP12 15-mer peptide, 0 = no response): 0; peptide-specific T-cell response, donor HH-N12-18, pre COVID-19 ([10]; donor HH-N12-18, sample pre COVID-19, single NSP12 15-mer peptide, 0 = no response): 0; peptide-specific T-cell response, donor HH-N12-34, post COVID-19 ([10]; donor HH-N12-34, sample post COVID-19, single NSP12 15-mer peptide, 0 = no response): 0.025; peptide-specific T-cell response, donor HH-N12-34, pre COVID-19 ([10]; donor HH-N12-34, sample pre COVID-19, single NSP12 15-mer peptide, 0 = no response): 0; peptide-specific T-cell response, donor HH-N12-35, post COVID-19 ([10]; donor HH-N12-35, sample post COVID-19, single NSP12 15-mer peptide, 0 = no response): 0; peptide-specific T-cell response, donor HH-N12-35, pre COVID-19 ([10]; donor HH-N12-35, sample pre COVID-19, single NSP12 15-mer peptide, 0 = no response): 0; peptide-specific T-cell response, donor HH-N12-36, post COVID-19 ([10]; donor HH-N12-36, sample post COVID-19, single NSP12 15-mer peptide, 0 = no response): 0; peptide-specific T-cell response, donor HH-N12-36, pre COVID-19 ([10]; donor HH-N12-36, sample pre COVID-19, single NSP12 15-mer peptide, 0 = no response): 0; peptide-specific T-cell response, donor HH-N12-37, post COVID-19 ([10]; donor HH-N12-37, sample post COVID-19, single NSP12 15-mer peptide, 0 = no response): 0; peptide-specific T-cell response, donor HH-N12-37, pre COVID-19 ([10]; donor HH-N12-37, sample pre COVID-19, single NSP12 15-mer peptide, 0 = no response): 0
VPVVDSYYSLLMPIL [compound 47] | 0.082 | 0 | 0 | 0 | 0.02 | 0 | 0 | 0 | 0 | 0 | –
VVKRHTFSNYQHEET [compound 15] | 0 | 0 | 0 | 0 | 0 | 0 | 0 | 0 | 0 | 0 | –
VYRAFDIYNDKVAGF [compound 7] | 0 | 0 | 0 | 0 | 0 | 0 | 0 | 0 | 0 | 0 | –
WYDFGDFIQTTPGSG [compound 44] | 0 | 0 | 0 | 0 | 0 | 0 | 0 | 0 | 0 | 0.05 | –
YFKYWDQTYHPNCVN [compound 58] | 0 | 0 | 0 | 0 | 0 | 0 | 0 | 0.041 | 0 | 0.11 | –
YSDVENPHLMGWDYP [compound 122] | 0 | 0 | 0 | 0 | 0 | 0 | 0 | 0 | 0 | 0 | –

Source: article PMC10196118, “Evidence for broad cross-reactivity of the SARS-CoV-2 NSP12-directed CD4^+ T-cell response with pre-primed responses directed against common cold coronaviruses” (Frontiers in Immunology, 2023)
